# According to US9688673B2, “Deoxycytidine kinase binding compounds” (THE REGENTS OF THE UNIVERSITY OF CALIFORNIA, priority 2011, dated 2017):
# “Also recorded” adds a separate entry of the source.
# Key:
# [1] = target: deoxycytidine kinase (dCK) (Homo sapiens, UniProt P27707); test: Inhibition of [3H]-deoxycytidine (dCyd) uptake by CEM cells; details: for Inhibition of [3H]-dCyd uptake by CEM cells, in words: ranking within panel / compared with DI-0105, DI-0110 and DI-0120
# Experimental: Potency of dCK inhibitory activities of the compounds can be tested by measuring cellular substrate uptake and phosphorylation, for examples, uptake of [^3H]-deoxycytidine (dCyd or dC) into CEM (human) or L1210 (mouse) cells.
# 50,000 CEM cells/well were added to Millipore MultiScreen GV 96 well plates. Cells were resuspended at 1×10^6 cells/mL and incubated for 30 minutes at 37° C. The drug dilution plate was prepared by starting with an initial drug concentration of 10 mM in DMSO, and proceeding to make 1:5 dilutions for drug. 10 mL of drug was added to 40 mL DMSO and mixed by pipetting 10 times before removing 10 uL for next well (1:5 serial dilutions). The media and tritiated deoxycytidine was mixed together. 245 mL of media/probe mixture was added to each well of an Optiplate. 5 mL from drug plate was added to each well in the Optiplate to obtain drug/media/probe mixture and mixed. 50 mL of drug/media/probe mixture from Optiplate was added to the cell plate and incubate at 37° C. for 1 hour. The cell plate was placed on vacuum to aspirate, and then washed with ice cold PBS: 200 mL 1×PBS 4 times. The backing of the plate was peeled off, and the plate was placed in dryer for at least 30 minutes or until dry at 37° C. 100 mL Scintillation fluid per well was added, and the plate was sealed with clear plate seal. The plate was read on the Microbeta instrument.
# [2] = test system: NALM-6 human acute B lymphoblastic leukemia; test: S-phase arrest by flow cytometry, NALM-6 cells; type: cell-based
# Experimental: (§1) At the end of the incubation period cells were analyzed by flow cytometry to determine the effects of the treatment on cell cycle progression.
# [3] = test system: CCRF-CEM (CEM) human acute T lymphoblastic leukemia; test: S-phase arrest by flow cytometry, CEM cells; type: cell-based
# Experimental: as §1
# [4] = test system: IGROV1 human ovarian adenocarcinoma; test: S-phase arrest by flow cytometry, IGROV1 cells; type: cell-based
# Experimental: as §1
# [5] = test system: CCRF-CEM (CEM) human acute T lymphoblastic leukemia; test: Leukemic cell proliferation and viability, CEM cells, 72 hours; type: cell-based
# Experimental: Addition of 2.5 μM dC rescued the cell cycle from the thymidine block by the salvage pathway.
# Primary murine T cells = test: In vitro T lymphocyte proliferation (CFSE, flow cytometry); type: cell-based, C57/BL6 mice; details: 1 μM final concentration, 72 hours after activation
# Experimental: Primary murine T cells were obtained from C57/BL6 mice. […] Prior to antibody-mediated activation, T cells were labeled with the fluorescent dye CFSE to allow measurements of cell division. […] The dCK inhibitors were used at 1 μM final concentration.
# CEM shC cells = test: Growth of CEM cells treated with dT and/or dC over 7 days; type: cell-based, human; details: period of 7 days
# Text: Compound F2.2.1 was not used in “Mock” experiments in either panel A or B.
# dCK activity = target: T1, dCK activity (Mus musculus, UniProt P43346); test: Inhibition of dCK activity in vivo by 18F-FAC PET/CT imaging; details: mice
# T1 construct: dCK expressing tissues such as Thymus (Thy), Bone marrow (BM), spleen (S) and the GI tract; from tissue; host or cells: living mice: thymus, bone marrow, spleen, GI tract
# Experimental: Mice were treated with the dCK inhibitor and scanned at indicated time points by ^18F-FAC PET/CT to non-invasively determine dCK activity in vivo, throughout the body. ^18F-FAC PET/CT scans were performed as described in Shu, C. J. et al., “Novel PET probes specific for deoxycytidine kinase” J. Nucl.
# [6] = test system: NALM-6 human acute B lymphoblastic leukemia; test: Cell proliferation and viability, NALM-6 cells, 72 hours; details: 1 μM F2.2.1 + 1.6 mM dT, media with 1.25 μM deoxycytidine
# Experimental: At the end of the incubation period cells were analyzed by flow cytometry to determine the effects of the treatment on leukemic cell proliferation and viability.
# [7] = test system: A549 human lung adenocarcinoma cells; test: Cell proliferation and viability, A549 cells, 72 hours; details: 1 μM F2.2.1 + 1 mM dT
# Experimental: At the end of the incubation period cells were analyzed by flow cytometry to determine the effects of the treatment on cell proliferation and viability.
# thymidine (dT) uptake = test: Inhibition of thymidine (dT) uptake (selectivity vs. dC uptake); details: read-out: dCKi IC50 dT
# Text: Potency of dCK inhibitory activities of the compounds can be tested by measuring cellular substrate uptake and phosphorylation, for examples, uptake of [^3H]-deoxycytidine (dCyd or dC) into CEM (human) or L1210 (mouse) cells. The compounds may be further screened for low off-target toxicity (e.g., inhibition of growth and proliferation of dCK negative cells) and selectivity over other nucleoside kinases (e.g., thymidine kinase).
# T1 sequence (P43346 whole entry): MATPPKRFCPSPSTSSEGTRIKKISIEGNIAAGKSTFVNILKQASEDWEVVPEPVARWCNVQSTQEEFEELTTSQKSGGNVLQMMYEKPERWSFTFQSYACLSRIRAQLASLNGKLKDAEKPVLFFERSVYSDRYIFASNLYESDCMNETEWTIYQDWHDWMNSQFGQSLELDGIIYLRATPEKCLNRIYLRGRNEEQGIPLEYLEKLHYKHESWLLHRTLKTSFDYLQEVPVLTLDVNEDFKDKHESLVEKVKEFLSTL
# deoxycytidine kinase (dCK), sequence (P27707 whole entry): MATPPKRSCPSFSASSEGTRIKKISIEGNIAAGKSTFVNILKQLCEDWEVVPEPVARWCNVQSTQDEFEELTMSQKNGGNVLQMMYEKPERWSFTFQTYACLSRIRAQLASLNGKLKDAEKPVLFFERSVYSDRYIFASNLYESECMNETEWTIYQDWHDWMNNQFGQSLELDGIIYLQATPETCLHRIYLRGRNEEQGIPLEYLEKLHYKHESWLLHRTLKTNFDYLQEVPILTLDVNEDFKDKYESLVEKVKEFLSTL
compound,measurement,setting,value
CCCc1sc(-c2cccc(OCCO)c2)nc1CSc1nc(N)cc(N)n1 [DI-29],"Inhibition of [3H]-dCyd uptake by CEM cells, in words",[1],among the most potent compounds in this panel
COc1ccc(Br)cc1-c1nc(CSc2nc(N)cc(N)n2)cs1 [DI-0120],EC50,[1],779 nM
CCCc1sc(-c2ccc(OC)c(OCCO)c2)nc1CSc1nccc(N)n1 [DI-27],"Inhibition of [3H]-dCyd uptake by CEM cells, in words",[1],among the most potent compounds in this panel
CCOc1ccc(-c2nc(CSc3nc(N)cc(N)n3)cs2)cc1OC [DI-0105],EC50,[1],133 nM
COc1ccc(-c2nc(CSc3nc(N)cc(N)n3)cs2)cc1 [DI-0110],EC50,[1],478 nM
"Cc1cn([C@H]2C[C@H](O)[C@@H](CO)O2)c(=O)[nH]c1=O [dT, thymidine, reference compound]",dT without dCKi % S-phase arrest (of cells in cycle),"[2]; NALM-6, 1.6 mM dT, 24 hours",52%
same,dT without dCKi % S-phase arrest (of cells in cycle),"[3]; 50 mM dT, 24 hours",36%
same,dT without dCKi % S-phase arrest (of cells in cycle),"[4]; IGROV1, 1 mM dT, 24 hours",35.9%
same,"Cell growth and cell cycle, thymidine alone",[5]; dT at 50 μM,suppressed cell growth but failed to shut down the cell cycle
CCCc1sc(-c2ccc(OC)c(OCCO)c2)nc1CSc1nc(N)cc(N)n1 [DI-26],T cell proliferation,Primary murine T cells,significantly blocks T cell proliferation
CCCc1sc(-c2ccnc(OCCO)c2)nc1CSc1nc(N)cc(N)n1 [DI-30],EC50,[1],2.5 nM
same,"Inhibition of [3H]-dCyd uptake by CEM cells, in words",[1],among the most potent compounds in this panel; also recorded: superior activities
"Nc1ccn([C@H]2C[C@H](O)[C@@H](CO)O2)c(=O)n1 [deoxycytidine (dC), deoxycytidine]","Number of viable cells relative to vehicle control, deoxycytidine",[5]; 2.5 μM dC,decreased the number of viable cells
COc1ccc(-c2nc(CSc3nc(N)cc(N)n3)c(C)s2)cc1OCCF [Compound F2.2.1],dT + dCKi % S-phase arrest (of cells in cycle),"[2]; NALM-6, 1.6 mM dT + 1 mM F2.2.1, 24 hours",79.8%
same,Growth of thymidine (dT) treated CEM cells,CEM shC cells,completely suppressed the growth
same,dT + dCKi % S-phase arrest (of cells in cycle),"[3]; 50 mM dT + 1 mM F2.2.1, 24 hours",84.5%
same,Duration of inhibition of dCK activity in vivo in multiple tissues,dCK activity; 200 mg/kg oral gavage,at least 2 hours
same,18F-FAC signals in dCK expressing tissues,"dCK activity; Thymus, Bone marrow, spleen and GI tract",Significant decrease
same,18F-FAC signals in the bladder,"dCK activity; bladder, probe clearance organ",not affected
same,dT + dCKi % S-phase arrest (of cells in cycle),"[4]; IGROV1, 1 mM dT + 1 mM F2.2.1, 24 hours",60.3%
same,"Proliferation of NALM-6 cells, combination with thymidine",[6],significantly reduce the proliferation
same,"Proliferation of A549 cells, combination with thymidine",[7],significantly reduce the proliferation
same,"Growth / proliferation of CEM cells, combination with thymidine",[5]; 1 μM F2.2.1 + 50 μM dT,almost completely shut down the growth of CEM cells; also recorded: significantly reduce the proliferation
same,"Effect on cell viability, compound alone",[5]; 1 μM alone,little effect on cell viability
same,"Inhibition of [3H]-dCyd uptake by CEM cells, in words",[1],superior activities
same,T cell proliferation,Primary murine T cells,significantly blocks T cell proliferation
same,IC50,thymidine (dT) uptake,4930 nM
